From US11725036B2, “Modified lipidated relaxin B chain peptides and their therapeutic use” (Sanofi, priority 2018, dated 2023)
≈ marks a conversion by molar mass, not a printed value. Starred links: 1 amine or outer side, 2 acyl side, 3 side chain; linkers in the order of their positions; H or OH if unused. Non-standard residues stand in square brackets, D forms with d. Residues, ends and D or L forms follow the SMILES beside them. Groups on a side chain read outwards from the residue. *: point of attachment. X1 = CCCCCCCCCCCCCCCC(=O)N[C@@H](CCC(=O)N[C@@H](CCC(=O)N[C@@H](CCC(=O)NCCCOCCOCCOCCCNC(=O)CCC(=O)NCCCOCCOCCOCCCNC(=O)CCC(=O)NCCCOCCOCCOCCCN*)C(=O)O)C(=O)O)C(=O)O; X4 = CCCCCCCCCCCCCCCCCC(=O)N[C@@H](CCC(=O)N[C@@H](CCC(=O)N[C@@H](CCC(=O)NCCCOCCOCCOCCCNC(=O)CCC(=O)NCCCOCCOCCOCCCN*)C(=O)O)C(=O)O)C(=O)O; Suc = O=C(CCC(=O)[*:2])[*:1]; Aib = CC(C)(N)C(=O)O

Columns and labels:
Stability in rat plasma = type: in vitro ADME; conditions: for Rat plasma stability % remaining: T = 0, 37° C., 5 μM; for remaining at 1 h, 5 μM: rat, plasma (sodium or lithium heparin), 37° C.
Experimental: (§1) Prior to the testing of stability in plasma (or blood) of a peptide batch, its purity (HPLC-UV) was determined.
(§2) Rat and Human plasma: anti-coagulant sodium or lithium heparin.
(§3) 100 μM solution of study compound in 50 mM phosphate buffer pH 7.4.
(§4) 950 μL plasma (or blood) was pre-incubated for 5 min at 37° C. 50 μL of compound stock solution was added. Final compound concentration=5 μM. Vortex and transfer 150 μL plasma (or blood) into an Eppendorf for each time point. The time points […] were carried out in duplicate for each species.
(§5) After incubation, 150 μL plasma (or blood) was extracted with 600 μL Acetonitrile containing 1% TFA. Said mixture was then vortexed and centrifuged 10 min at 14600 rpm. 200 μL supernatant was dried under N2. Sample was then reconstituted in 200 μL of H2O/CH3CN 98/2+0.1% FA+50 ng/ml Labetalol and analyzed using the analytical system used in solubility and stability studies.
(§6) For determination of the amount of the remaining peptide, the peak areas of the target compound at t0 and each time point […] were compared, resulting in “% remaining peptide”, following the equation: % remaining peptide=[(peak area peptide time)×100]/peak area peptide t0. The stability was expressed as “% remaining peptide”.

[1] = Stability in human plasma; type: in vitro ADME; conditions: for Human Plasma stability % remaining: T = 0, 37° C., 5 μM; for remaining at 1 h, 5 μM / remaining at 4 h, 5 μM: human, plasma (sodium or lithium heparin), 37° C.
Experimental: as §1, §2, §3, §4, §5, §6

[2] = Solubility testing in buffer; type: physicochemical; conditions: phosphate buffer 50 mM pH 7.4; target solubility 10.0 mg/ml; read-out: Solubility phosphate buffer pH 7.4
RXFP1 = target: T1, RXFP1 (Homo sapiens, UniProt Q9HBX9); assay: OVCAR5 cAMP assay (HTRF); type: cell-based; conditions: for EC50: OVCAR 5 cells expressing endogenous RXFP1, cAMP readout; for Emax: OVCAR 5 cells, maximal cAMP relative to H2-relaxin
T1 construct: OVCAR5 cells expressing endogenous RXFP1; endogenous in cells; host or cells: OVCAR5
T1 sequence (Q9HBX9 1-757): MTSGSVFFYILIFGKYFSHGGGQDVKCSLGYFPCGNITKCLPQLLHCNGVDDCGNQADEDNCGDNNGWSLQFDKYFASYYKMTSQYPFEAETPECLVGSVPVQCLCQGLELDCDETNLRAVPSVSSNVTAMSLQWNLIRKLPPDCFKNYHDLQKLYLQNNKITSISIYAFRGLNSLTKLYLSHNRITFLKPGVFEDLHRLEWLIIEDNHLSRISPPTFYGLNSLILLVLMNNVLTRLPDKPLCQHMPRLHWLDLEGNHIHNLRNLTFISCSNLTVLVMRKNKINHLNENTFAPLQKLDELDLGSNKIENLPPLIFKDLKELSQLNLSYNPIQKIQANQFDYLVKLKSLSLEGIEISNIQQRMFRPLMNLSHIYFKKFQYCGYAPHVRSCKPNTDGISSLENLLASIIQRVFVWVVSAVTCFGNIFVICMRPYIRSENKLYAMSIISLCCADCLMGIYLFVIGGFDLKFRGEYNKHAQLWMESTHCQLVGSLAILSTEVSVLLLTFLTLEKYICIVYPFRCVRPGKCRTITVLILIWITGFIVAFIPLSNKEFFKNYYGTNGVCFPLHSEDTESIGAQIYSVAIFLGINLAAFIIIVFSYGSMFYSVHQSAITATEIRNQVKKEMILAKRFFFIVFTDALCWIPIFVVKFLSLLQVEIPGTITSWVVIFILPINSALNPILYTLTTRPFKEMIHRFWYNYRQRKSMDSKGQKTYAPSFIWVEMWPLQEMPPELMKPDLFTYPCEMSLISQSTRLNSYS
How it was run: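 Endogenous RXFP1 in OVCAR5 cells, pretreated 40 min at 37° C with 1 mM IBMX, then exposed to increasing peptide concentrations in serum-free medium for 30 min at 37° C. cAMP read by HTRF; EC50 by variable-slope sigmoidal fit, Emax as % of H2-relaxin maximal cAMP in same run.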

in vivo = assay: in vivo; design: species or system Sprague Dawley rats; conditions: Sprague Dawley, rat
Experimental: Prior to the testing of a peptide batch, its purity (HPLC-UV) was determined. Dose was corrected for presence of salts, solvent and purity. Bioanalytical screening method for quantification of peptides in rat: Sprague Dawley rats were dosed with study peptide at a dose of 1 mg/kg intravenously (i.v.) or 3 mg/kg subcutaneously (s.c.) as a solution in PBS (0.2 mg/ml and 0.6 mg/ml respectively). Blood samples were collected after: 0.083, 0.25, 0.5, 1, 2, 4, 8, 24, 48 and 72 h (i.v. route) and 0.25, 0.5, 1, 2, 4, 6, 8, 10, 24, 48 and 72 h (s.c route) post application. Plasma samples were analyzed after protein precipitation via liquid chromatography mass spectrometry (LC/MS). PK parameters and half-life were calculated using Phoenix 64 (WinNonlin 6.4)-Pharsight (Certara™) (non-compartment model). Values below the limit of quantification (BLQ) were replaced by zero for subsequent calculations and PK analysis. T½: in-vivo half-life, time required for test compound plasma concentration to be divided by two during the PK experiment. C0: Extrapolated test compound plasma concentration at t=0 time point (i.v. route). Cmax: maximal test compound plasma concentration at the indicated time point (s.c. route). Tmax: Time point where Cmax was attained. F %: s.c. vs i.v. bioavailability, dose-corrected area under curve (AUC) s.c. route divided by AUC i.v.

| Molecule | Rat plasma stability % remaining (Stability in rat plasma) [%] | Human Plasma stability % remaining [1] [%] | solubility [2] [µg/mL] | remaining at 1 h, 5 μM (Stability in rat plasma) [%] | remaining at 1 h, 5 μM [1] [%] | remaining at 4 h, 5 μM [1] [%] | EC50 (RXFP1) [nM] | Emax (RXFP1) [%] | C0 (in vivo; iv, 1 mg/kg) [µM] | half-life (in vivo; iv, 1 mg/kg) [h] | bioavailability (in vivo; sc) [%] | Cmax (in vivo; sc, 3 mg/kg) [µM] | Tmax (in vivo; sc, 3 mg/kg) [h] |
| --- | --- | --- | --- | --- | --- | --- | --- | --- | --- | --- | --- | --- | --- |
| Ac-VIKLSGRELVRAQIAISGMSTWSKRSL-NH2 [AcB7-33 C11.23S, reference compound] | 100 | 100 |  |  |  |  |  |  |  |  |  |  |  |
| CCCCCCCCCCCCCCCC(=O)N[C@@H](CCC(=O)N[C@@H](CCC(=O)N[C@@H](CCC(=O)NCCCOCCOCCOCCCNC(=O)CCC(=O)NCCCOCCOCCOCCCNC(=O)CCC(=O)NCCCOCCOCCOCCCNC(=O)CCC(=O)NCCCC[C@H](NC(=O)CNC(=O)[C@H](CCC(=O)O)NC(=O)C(C)(C)NC(=O)C(C)(C)NC(=O)[C@@H](NC(=O)[C@H](CCCCNC(C)=O)NC(=O)[C@H](C)NC(=O)[C@H](CCCNC(=N)N)NC(=O)[C@@H](NC(=O)[C@H](CCCCN)NC(=O)[C@H](CCC(=O)O)NC(=O)[C@H](CCCNC(=N)N)NC(=O)CNC(=O)[C@H](CCC(=O)O)NC(=O)[C@H](CC(C)C)NC(C)=O)C(C)C)[C@@H](C)CC)C(=O)N[C@@H](CO)C(=O)N[C@H](C(=O)N[C@@H](Cc1ccccc1)C(=O)N[C@@H](CO)C(=O)N[C@@H](CCCCN)C(=O)N[C@@H](CCCNC(=N)N)C(=O)N[C@@H](C)C(=O)N[C@@H](CCCCNC(C)=O)C(N)=O)[C@@H](C)O)C(=O)O)C(=O)O)C(=O)O [compound 13] (Ac-LEGREKVRAK(Ac)I[Aib][Aib]EGK([Suc-X1])STFSKRAK(Ac)-NH2) | 89 | 100 | 7680 (≈ 1770 µM) | 100 | 91 | 89 | 2.12 | 91 |  |  |  |  |  |
| CCCCCCCCCCCCCCCCCC(=O)N[C@@H](CCC(=O)N[C@@H](CCC(=O)N[C@@H](CCC(=O)NCCCOCCOCCOCCCNC(=O)CCC(=O)NCCCOCCOCCOCCCNC(=O)CCC(=O)NCCCC[C@H](NC(=O)CNC(=O)[C@H](CCC(=O)O)NC(=O)C(C)(C)NC(=O)C(C)(C)NC(=O)[C@@H](NC(=O)[C@H](CCCCNC(C)=O)NC(=O)[C@H](C)NC(=O)[C@H](CCCNC(=N)N)NC(=O)[C@@H](NC(=O)[C@H](CCCCN)NC(=O)[C@H](CCC(=O)O)NC(=O)[C@H](CCCNC(=N)N)NC(=O)CNC(=O)[C@H](CCC(=O)O)NC(=O)[C@H](CC(C)C)NC(C)=O)C(C)C)[C@@H](C)CC)C(=O)N[C@@H](CO)C(=O)N[C@H](C(=O)N[C@@H](Cc1c[nH]c2ccccc12)C(=O)N[C@@H](CO)C(=O)NC(C)(C)C(=O)N[C@@H](CCCNC(=N)N)C(=O)N[C@@H](CCCCN)C(=O)N[C@@H](CCCCNC(C)=O)C(N)=O)[C@@H](C)O)C(=O)O)C(=O)O)C(=O)O [compound 6] (Ac-LEGREKVRAK(Ac)I[Aib][Aib]EGK([Suc-X4])STWS[Aib]RKK(Ac)-NH2) | 97 | 97 |  | 94 | 92 | 91 | 0.27 | 95 | 5.17 | 5.59 | 72 | 2.71 | 8 |
